This is an account of results in PMC12257544, “Fluorescent Isostere (Fluostere) of the Carboxylate: Design of hDHODH Fluorescent Inhibitors as Proof of Concept” (Journal of Medicinal Chemistry, 2025).

The nature of series [1]: Photophysical characterization (absorption, emission, QY, lifetime). Type of series: physicochemical. To be noted: for Lifetime / QY (luminescence quantum yield) / Stokes shift / λabs / λem: in ACN. How it is done:
UV–Vis absorption spectra were recorded on a Cary60 spectrometer. Photoemission spectra, luminescence lifetimes, and quantum yields were acquired with a HORIBA Jobin Yvon IBH Fluorolog-TCSPC spectrofluorometer equipped with a Quanta-φ integrating sphere. […] Emission-decay data were collected in 2048 channels to 10000 counts in the peak channel. IRF was measures using colloidal silica suspension in H2O to scatter light. Data were analyzed with the software DAS6 (TCSPC decay-analysis software) using a nonlinear least-squares method to fit of the decay to a sum of exponentials. The value of χ^2, residuals and the autocorrelation function (Durbin-Watson parameter) were used to determine the quality of the fit. For measurements in the presence of hDHODH, 11a was incubated, at 1 μM concentration in TRIS Buffer 0.1 mM (pH 8) with 0.1% DMSO, alone or with different concentrations of recombinant protein ranging from 31.5 to 504 nM concentration. After 5 min incubation UV–Vis absorption spectra were recorded on a Cary60 spectrophotometer and photoemission spectra were acquired with a HORIBA Jobin Yvon IBH Fluorolog-TCSPC spectrofluorometer with excitation λ of 366 nm and maximum of emission at 500 nm; a.u. data were analyzed with GraphPad Prism using One Site – Specific Binding equation.

On the set-up of series [2]: method as in doi:10.1021/cr00002a004. The following applies: substituent in position 3; cited from earlier work.
In the next series the target is hDHODH enzyme GST-tagged (Homo sapiens, UniProt Q02127). The series can be described thus: hDHODH inhibition assay (DCIP reduction).
Sequence of hDHODH enzyme GST-tagged (Q02127 whole entry): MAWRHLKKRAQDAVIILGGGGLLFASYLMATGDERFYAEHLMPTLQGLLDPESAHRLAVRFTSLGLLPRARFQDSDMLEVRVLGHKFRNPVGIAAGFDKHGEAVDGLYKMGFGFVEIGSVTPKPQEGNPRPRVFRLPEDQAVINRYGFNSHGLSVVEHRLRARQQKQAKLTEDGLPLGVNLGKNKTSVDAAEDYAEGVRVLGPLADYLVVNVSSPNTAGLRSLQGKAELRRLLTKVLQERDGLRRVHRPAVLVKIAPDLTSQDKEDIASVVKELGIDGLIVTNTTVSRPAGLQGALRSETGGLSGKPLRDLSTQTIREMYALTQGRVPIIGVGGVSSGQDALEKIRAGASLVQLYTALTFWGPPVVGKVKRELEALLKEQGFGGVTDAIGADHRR

“And” between values parts separate entries of the source, which are not always exact repeats. Equal entries are not always repeated. Bounds are passed on as bounds.

Procedure for hDHODH enzyme GST-tagged: The enzyme (around 60 nM) was preincubated for 5 min at 37 °C in Tris-buffer solution (pH 8.0) with coenzyme Q10 (100 μM), tested compounds at different concentrations (final DMSO concentration 0.1% v/v), and DCIP (50 μM). The reaction was initiated by addition of DHO (500 μM) and the reduction was monitored at λ = 650 nm. […] Values are means ± SE of three independent experiments.

For the compound `COc1nn2ccccc2c1-c1ccc2cccnc2c1` [Compound 7b, 7-(2-Methoxypyrazolo[1,5-a]pyridin-3-yl)quinoline], in series [1], the Lifetime was 5.5 ns, the “QY (luminescence quantum yield)” value was 0.42, the Stokes shift turned out to be 5868 cm^–1 and the λabs was found to be 356 nm. In addition, in series [1], the λem stood at 450 nm.
With `COc1nn2ccccc2c1C=C(C#N)C#N` [Compound 4a, 2-((2-Methoxypyrazolo[1,5-a]pyridin-3-yl)methylene)], in series [1], the λabs turned out to be 393 nm, the λem entry was “n.e” and the “emission in the solid state” value is given as “yellow light”.
As to `COc1nn2c(N(C)C)cccc2c1-c1ccc2ncccc2c1` [Compound 9b, 2-Methoxy-N,N-dimethyl-3-(quinolin-6-yl)pyrazolo[1,5-a]pyridin-7-amine], in series [1], the Lifetime was found to be 2.7 ns, the “QY (luminescence quantum yield)” value is 0.10, the Stokes shift is 9508 cm^–1 and the λabs came out at 362 nm. The same compound registered a λem in series [1] of 552 nm.
`CCOC(=O)c1c(=O)n(Cc2ccccc2)n2ccccc12` [Compound 2d, Ethyl 1-benzyl-2-oxo-1,2-dihydropyrazolo[1,5-a]pyridine-3-carboxylate]: in series [1], the Lifetime amounted to 12 ns, the “QY (luminescence quantum yield)” value worked out at 0.30, the Stokes shift was 6414 cm^–1 and the λabs is reported as 348 nm. In addition, the λem in series [1] is 448 nm.
On to `O=[N+]([O-])c1c(O)nn2ccccc12` [Compound 3, 3-Nitropyrazolo[1,5-a]pyridin-2-ol], for which the “σ p (Hammett substituent constant)” value in series [2] is reported as 0.78. Moreover, in series [1], the λabs worked out at 361 nm and the λem result was “n.e. ^a”.
Turning to `COc1nn2c(Cl)cccc2c1-c1ccc2ncccc2c1` [Compound 9a, 6-(7-Chloro-2-methoxypyrazolo[1,5-a]pyridin-3-yl)quinoline], in series [1], the Lifetime stood at 5.1 ns, the “QY (luminescence quantum yield)” value is less than 0.01, the Stokes shift is reported as 6832 cm^–1 and the λabs is reported as 350 nm.
As to `Oc1nn2ccccc2c1-c1ccc2cc(-c3ccccc3)ccc2n1` [Compound 12, 3-(6-Phenylquinolin-2-yl)pyrazolo[1,5-a]pyridin-2-ol], the midpoint of inhibition against hDHODH enzyme GST-tagged, the IC50, lay at 16 µM. Besides, in series [1], the Lifetime was found to be 2.3 ns, the “QY (luminescence quantum yield)” value is reported as less than 0.01, the Stokes shift stood at 2385 cm^–1 and the λabs was 390 nm. The compound further displayed a λem in series [1] of 430 nm.
Turning to `COc1nn2ccccc2c1NC(C)=O` [Compound 3a, N-(2-methoxypyrazolo[1,5-a]pyridine-3-yl)acetamide], in series [2], the “σ p (Hammett substituent constant)” value was 0.00. Moreover, in series [1], the “QY (luminescence quantum yield)” value is reported as less than 0.01, the Stokes shift is 10169 cm^–1, the λabs came to 312 nm and the λem was 457 nm.
For the compound `COc1nn2ccccc2c1/C=C/c1ccccc1` [Compound 5a, (E)-2-methoxy-3-styrylpyrazolo[1,5-a]pyridine], in series [1], the Lifetime was determined as 3.5 ns, the “QY (luminescence quantum yield)” value was less than 0.01, the Stokes shift was 9851 cm^–1 and the λabs was 335 nm. In series [1], this compound returned a λem of 500 nm.
On the same counts, the results for `CCOC(=O)c1c(=O)n(C)n2ccccc12` [Compound 2b, Ethyl 1-methyl-2-oxo-1,2-dihydropyrazolo[1,5-a]pyridine-3-carboxylate] are 11 ns, 0.26, 6514 cm^–1, 345 nm and 445 nm.
In series [1], `Cn1c(=O)cc2ccccn21` [Compound 1b, 1-Methylpyrazolo[1,5-a]pyridin-2(1H)-one] yielded a λabs of 335 nm and a λem of 465 nm.
For the compound `CCOC(=O)c1c(O)nn2c(N(C)C)cccc12` [Compound 8a, Ethyl 7-(Dimethylamino)-2-hydroxypyrazolo[1,5-a]pyridine-3-carboxylate], in series [1], the Lifetime is 3.7 ns, the “QY (luminescence quantum yield)” value was determined as 0.06, the Stokes shift came to 5255 cm^–1 and the λabs came out at 338 nm. The λem in series [1] was 411 nm.
As for `COc1nn2ccccc2c1/C=C/c1ccc(C#N)cc1` [Compound 5d, (E)-4-(2-(2-methoxypyrazolo[1,5-a]pyridin-3-yl)vinyl)benzonitrile], in series [1], the Lifetime is 3.5 ns, the “QY (luminescence quantum yield)” value is listed as less than 0.01, the Stokes shift was 5178 cm^–1 and the λabs stood at 378 nm. The λem in series [1] was determined as 470 nm.
Take `COC(=O)/C(C#N)=C/c1c(OC)nn2ccccc12` [Compound 4b, Methyl (e)-2-cyano-3-(2-methoxypyrazolo[1,5-a]pyridin-3-yl)acrylate]: in series [1], the λabs is reported as 395 nm, the λem result is reported as “n.e” and the “emission in the solid state” value was “yellow light”.
Consider `Oc1nn2ccccc2c1/C=C/c1cc(F)c(-c2ccccc2)c(F)c1F` [Compound 11b], for which, in series [1], the Lifetime is given as less than 1 ns, the “QY (luminescence quantum yield)” value is given as 0.08, the Stokes shift is 3531 cm^–1 and the λabs was 450 nm. For the same compound, the λem in series [1] was 542 nm and 535 nm.
With `COc1nn2ccccc2c1/C=C/c1ccc(SC)cc1` [Compound 5b, (E)-2-methoxy-3-(4-(methylthio)styryl)pyrazolo[1,5-a]pyridine], in series [1], the Lifetime was determined as 3.5 ns, the “QY (luminescence quantum yield)” value was less than 0.01, the Stokes shift is 8964 cm^–1 and the λabs worked out at 350 nm. Also, the λem in series [1] is reported as 510 nm.
Take `COc1nn2ccccc2c1NS(C)(=O)=O` [Compound 3b, N-(2-methoxypyrazolo[1,5-a]pyridin-3-yl)methanesulfonamide]: the “σ p (Hammett substituent constant)” value in series [2] is on record as 0.03. Further, in series [1], the Lifetime was 2 ns, the “QY (luminescence quantum yield)” value is listed as less than 0.01, the Stokes shift came to 10379 cm^–1 and the λabs is on record as 315 nm. Also, the λem in series [1] is on record as 468 nm.
`COc1nn2ccccc2c1-c1ccc2ccccc2n1` [Compound 7a, 2-(2-Methoxypyrazolo[1,5-a]pyridin-3-yl)quinoline]: in series [1], the Lifetime amounted to 2.8 ns, the “QY (luminescence quantum yield)” value is reported as 0.52, the Stokes shift is recorded as 3330 cm^–1 and the λabs came to 370 nm. This compound also showed a λem in series [1] of 422 nm.
As to `CCOC(=O)c1c(OCc2ccccc2)nn2ccccc12` [Compound 2c, Ethyl 2-(Benzyloxy) Pyrazolo[1,5-a]pyridine-3-carboxylate], in series [1], the Lifetime is listed as 9 ns, the “QY (luminescence quantum yield)” value turned out to be 0.43, the Stokes shift was 5942 cm^–1 and the λabs came out at 310 nm. Moreover, the λem in series [1] came out at 380 nm.
On the same counts, the results for `COc1nn2ccccc2c1/C=C/c1ccc([N+](=O)[O-])cc1` [Compound 5e, (E)-2-methoxy-3-(4-nitrostyryl) Pyrazolo[1,5-a]pyridine] are less than 0.1 ns, less than 0.01, 8368 cm^–1, 426 nm and 662 nm.
On the same counts, the results for `COc1nn2ccccc2c1-c1ccc2ccccc2c1` [Compound 6, 2-Methoxy-3-(naphthalen-2-yl)pyrazolo[1,5-a]pyridine] are 4.3 ns, 0.13, 7480 cm^–1, 345 nm and 465 nm.
With `COc1cc2ccccn2n1` [Compound 1a, 2-Methoxypyrazolo[1,5-a]pyridine], in series [1], the λabs is reported as 305 nm and the λem turned out to be 400 nm.
As for `COc1nn2ccccc2c1/C=C/c1ccc(S(C)(=O)=O)cc1` [Compound 5c, (E)-2-methoxy-3-(4-(methylsulfonyl)styryl)pyrazolo[1,5-a]pyridine], in series [1], the Lifetime is given as 3.5 ns, the “QY (luminescence quantum yield)” value is on record as less than 0.01, the Stokes shift is reported as 5750 cm^–1 and the λabs worked out at 370 nm. In series [1], this compound displayed a λem of 470 nm.
On the same counts, the results for `CCOC(=O)c1c(OC)nn2ccccc12` [Compound 2a, Ethyl 2-methoxypyrazolo[1,5-a]pyridine-3-carboxylate] are 9 ns, 0.45, 5942 cm^–1, 310 nm and 380 nm.
Take `COc1nn2ccccc2c1-c1ccc2ncccc2c1` [Compound 7c, 6-(2-Methoxypyrazolo[1,5-a]pyridin-3-yl)quinoline]: in series [1], the Lifetime came to 5.3 ns, the “QY (luminescence quantum yield)” value worked out at 0.24, the Stokes shift is given as 6832 cm^–1 and the λabs is 350 nm. The λem in series [1] amounted to 460 nm.
